According to the supplement of paper PMC10307832:

How the values were obtained:
Test in all cases: relative viability (nuclei count vs DMSO), 5 days (fraction); higher = more cells survive
[1] = compound: CC1=CC=C(C=C1)C(=O)CN2C3=C(CCCC3)SC2=N [Pifithrin_alpha] + Cc1nc(Nc2ncc(C(=O)Nc3c(C)cccc3Cl)s2)cc(N2CCN(CCO)CC2)n1 [Dasatinib] (partner 0.075 µM)
Method in brief: (§1)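 Lung cancer cell lines were seeded in 1536-well plates and dosed by pin tool the next day, with either a single drug or a fixed anchor-drug dose combined with five library-drug doses (not always all listed) spaced in √10 steps. Five days later, one step fixed the cells and stained their nuclei (final 0.05% Triton X-100, 1% formaldehyde, 1 ug/ml Hoechst), and nuclei were counted on 4× images. Relative viability is the nuclei count in treated wells divided by the count in vehicle wells, and each value is the median of duplicate plates.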

Axitinib + Palbociclib = compound: CNC(=O)c1ccccc1Sc1ccc2c(/C=C/c3ccccn3)n[nH]c2c1 [Axitinib] + CC(=O)c1c(C)c2cnc(Nc3ccc(N4CCNCC4)cn3)nc2n(C2CCCC2)c1=O [Palbociclib] (partner 0.5 µM)
Method in brief: as §1

Axitinib + Navitoclax = compound: CNC(=O)c1ccccc1Sc1ccc2c(/C=C/c3ccccn3)n[nH]c2c1 [Axitinib] + CC1(C)CCC(c2ccc(Cl)cc2)=C(CN2CCN(c3ccc(C(=O)NS(=O)(=O)c4ccc(N[C@H](CCN5CCOCC5)CSc5ccccc5)c(S(=O)(=O)C(F)(F)F)c4)cc3)CC2)C1 [Navitoclax] (partner 0.5 µM)
Method in brief: as §1

Bemcentinib + AZD7762 = compound: Nc1nc(Nc2ccc3c(c2)CC[C@@H](N2CCCC2)CC3)nn1-c1cc2c(nn1)-c1ccccc1CCC2 [Bemcentinib] + NC(=O)Nc1cc(-c2cccc(F)c2)sc1C(=O)N[C@H]1CCCNC1 [AZD7762] (partner 0.2 µM)
Method in brief: as §1

| Cell Line | relative viability ([1]; first compound 1 µM) | relative viability ([1]; first compound 3.162 µM) | relative viability ([1]; first compound 10 µM) | relative viability ([1]; first compound 31.62 µM) | relative viability ([1]; first compound 100 µM) | relative viability (Axitinib + Palbociclib; first compound 0.005 µM) | relative viability (Axitinib + Palbociclib; first compound 0.01581 µM) | relative viability (Axitinib + Palbociclib; first compound 0.05 µM) | relative viability (Axitinib + Palbociclib; first compound 0.1581 µM) | relative viability (Axitinib + Palbociclib; first compound 0.5 µM) | relative viability (Axitinib + Navitoclax; first compound 0.005 µM) | relative viability (Axitinib + Navitoclax; first compound 0.01581 µM) | relative viability (Axitinib + Navitoclax; first compound 0.05 µM) | relative viability (Axitinib + Navitoclax; first compound 0.1581 µM) | relative viability (Axitinib + Navitoclax; first compound 0.5 µM) | relative viability (Bemcentinib + AZD7762; first compound 0.04 µM) | relative viability (Bemcentinib + AZD7762; first compound 0.1265 µM) | relative viability (Bemcentinib + AZD7762; first compound 0.4 µM) | relative viability (Bemcentinib + AZD7762; first compound 1.265 µM) | relative viability (Bemcentinib + AZD7762; first compound 4 µM) |
| --- | --- | --- | --- | --- | --- | --- | --- | --- | --- | --- | --- | --- | --- | --- | --- | --- | --- | --- | --- | --- |
| HOP-62 | 0.726 | 0.589 | 0.578 | 0.698 | 0.638 | 0.469 | 0.436 | 0.44 | 0.45 | 0.468 | 1.07 | 1.06 | 1.02 | 1.06 | 1.12 | 0.531 | 0.505 | 0.599 | 0.527 | 0.511 |
| LC-2-ad | – | 0.492 | 0.347 | – | 0.437 | 0.473 | 0.532 | 0.485 | 0.503 | 0.523 | 0.572 | 0.576 | 0.532 | 0.506 | 0.573 | 0.807 | 0.838 | 1.01 | 0.831 | 0.84 |
| LCLC-97TM1 | 1.08 | 0.846 | 0.984 | 0.428 | 0.954 | 0.27 | 0.263 | 0.199 | 0.201 | 0.239 | 0.485 | 0.506 | 0.475 | 0.489 | 0.534 | 0.183 | 0.298 | 0.186 | 0.28 | 0.309 |
| LK-2 | 0.249 | 0.246 | 0.28 | – | 0.307 | 0.492 | 0.661 | 0.544 | 0.659 | 0.668 | 1.1 | 0.84 | 0.657 | 0.659 | 0.644 | 0.281 | 0.42 | 0.289 | 0.508 | 0.48 |
| LOU-NH91 | 0.371 | 0.501 | 0.535 | 0.475 | 0.493 | 0.564 | 0.568 | 0.537 | 0.444 | 0.527 | 0.744 | 0.467 | 0.66 | 0.645 | 0.802 | 0.423 | 0.77 | 0.791 | 0.806 | 0.799 |
| LU99A | 0.385 | 0.651 | 0.609 | 0.369 | 0.583 | 0.408 | 0.416 | 0.394 | 0.438 | 0.417 | 0.858 | 0.805 | 0.83 | 0.773 | 0.902 | 0.377 | 0.375 | 0.394 | 0.344 | 0.35 |
| LXF-289 | 0.204 | 0.201 | 0.172 | 0.167 | 0.145 | 0.597 | 0.539 | 0.603 | 0.583 | 0.657 | 0.952 | 0.944 | 0.944 | 0.945 | 0.928 | 1.16 | 1.22 | 1.09 | 1.19 | 1.2 |
| NCI-H23 | 0.887 | 0.675 | 0.741 | – | 0.456 | 0.458 | 0.512 | 0.616 | 0.483 | 0.559 | 0.907 | 0.947 | 0.856 | 0.87 | 0.893 | 0.282 | 0.245 | 0.208 | 0.201 | 0.212 |
| NCI-H322M | 0.25 | 0.258 | 0.245 | 0.245 | 0.226 | 0.454 | 0.442 | 0.491 | 0.427 | 0.514 | 1.18 | 1.14 | 1.07 | 1.08 | 1.07 | 0.545 | 0.564 | 0.593 | 0.681 | 0.617 |
| NCI-H441 | 0.556 | 0.574 | 0.498 | – | 0.613 | 0.239 | 0.225 | 0.222 | 0.204 | 0.25 | 0.521 | 1 | 0.727 | 0.754 | 0.994 | 1.33 | 1.29 | 1.1 | 1.41 | 1.29 |
| NCI-H460 | 0.433 | 0.414 | 0.35 | 0.31 | 0.266 | 0.154 | 0.211 | 0.143 | 0.145 | 0.319 | 1.12 | 0.964 | 1.17 | 0.984 | 1.18 | 0.678 | 0.694 | 0.668 | 0.581 | 0.407 |
| NCI-H647 | 0.218 | 0.17 | 0.141 | 0.153 | 0.153 | 0.554 | 0.375 | 0.475 | 0.395 | 0.421 | 1.21 | 1.12 | 1.03 | 1.2 | 1.28 | 0.346 | 0.539 | 0.498 | 0.511 | 0.31 |
| NCI-H727 | 0.357 | 0.421 | 0.394 | – | 0.346 | 0.597 | 0.66 | 0.596 | 0.673 | 0.613 | 0.582 | 0.466 | 0.454 | 0.451 | 0.61 | 0.527 | 0.575 | 0.483 | 0.495 | 0.569 |
| NCI-H838 | 0.259 | 0.28 | 0.245 | 0.234 | 0.229 | 0.246 | 0.229 | 0.233 | 0.226 | 0.23 | 1.2 | 1.18 | 1.21 | 1.15 | 1.3 | 0.942 | 0.975 | 1.02 | 0.998 | 0.917 |
| NCI-H1355 | 0.502 | 0.409 | 0.386 | 0.414 | 0.445 | 0.415 | 0.443 | 0.426 | 0.414 | 0.409 | 0.992 | 0.921 | 0.948 | 1.01 | 0.991 | 0.742 | 0.742 | 0.78 | 0.834 | 0.576 |
| NCI-H1395 | 0.407 | 0.419 | 0.371 | 0.399 | 0.386 | 0.594 | 0.509 | 0.507 | 0.579 | 0.711 | 1.14 | 1.21 | 1.02 | 1.01 | 1.57 | – | 0.404 | 0.425 | 0.406 | 0.366 |
